Laboratory results: PMC5090206, “Fluselenamyl: A Novel Benzoselenazole Derivative for PET Detection of Amyloid Plaques (Aβ) in Alzheimer’s Disease” (Scientific Reports, 2016)

Test: Biodistribution studies of [18F]-9 in normal mice
Format: in vivo
Conditions: for Blood uptake / Bone uptake / Brain uptake / Heart uptake / Kidney uptake / Liver uptake / Lung uptake: tail-vein injection
Description: Uptake in brain and other critical organs was analyzed in terms of percent injected dose per gram of the tissue (%ID/g) SI Table 1. For in vivo imaging of Aβ plaques, the basic pharmacokinetic model in normal brains involves a high initial penetration of the agent, accompanied by facile clearance due to lack of a binding target. […] For comparison, brain uptake ratios of [^18F]-AV-45 (2 min/2 h) and [^18F]-Florbetaben (2 min/4 h) in normal mice are 4.07 (%ID/g (brain): 2 min: 7.33 ± 1.54; 2 h: 1.80 ± 0.07; 7.33/1.80; 4.07)[10] and 5.0 (%ID/g (brain): 2 min: 4.77; 4 h: 0.95; 4.77/0.95; 5.02)[46], respectively. […] For an agent to be able to serve as an Aβ-imaging agent, literature precedents indicate that brain uptake ratio (%ID/g; the earliest time–point; 2–5 min to that of the latest time point; typically for carbon-11; 30–60 min; and F-18, 2 h) of 3.5 or above could be considered as a benchmark for ability of a given agent to cross the blood-brain barrier. Additionally, the brain uptake of a given imaging agent is also a net function of several components, such as cerebral regional blood flow, BBB permeability, plasma radiotracer concentration, and free fractions of the radiotracer in plasma and in the brain. Furthermore, the lipophilicity of a given compound also reflects a critical physicochemical trait for neuroimaging radiotracers due to its direct relationship to membrane permeability, solubility in water, and entropic contribution to binding. Literature precedents indicate that lipophilic drugs readily cross the BBB, although other chemical characteristics, including the number of hydrogen bonds, molecular weight, polar surface area and molecular size are also known to be critical traits for passive transport. […] Conversely, radiotracers that are too lipophilic can also bind plasma proteins, undergo fast metabolism, while also contributing to high nonspecific binding, such as white matter. […] Additionally, the agent [^18F]-9 excreted from other critical organs over 2 h (SI, Table 1); a critical factor likely to result in favorable dosimetry; although slight defluorination as a function of time is also evident from bone accumulation; yet consistent with pharmacokinetic profiles of other FDA approved agents. For assessing directly the ability of radiotracer to traverse the BBB, [^18F]-9 (170 μCi) was injected into a 24 months old APP/PS1 transgenic mouse and its age-matched WT counterpart, and 30 min post tail-vein injection, the brains were removed, frozen, and sectioned for autoradiography (Fig. 7A–E). […] For ROI analysis of the PET signal in brain section autoradiograms of transgenic mouse (Fig. 7A) and its WT counterpart (Fig. 7D), we used measured count densities in cortex and amygdala target regions and compared them with that of hypothalamus as reference region with a low plaque density as determined by Aβ immunostaining (Fig. 7B). The target/reference ratio (mean ± SD) in the transgenic mouse was 1.88 ± 0.22 compared to 0.96 ± 0.12 in the WT control mouse (Fig. 7E). Since brain stem was also devoid of plaques, we also analyzed the above target regions using brain stem as a reference region, and observed target/reference value in the transgenic to be 0.89 ± 0.1 compared to 0.45 ± 0.07 in the WT mouse. […]
The count intensity (expressed as quantitative light unit (QL)/pixel2) was measured for each ROI after background subtraction, and target/reference ratios for Tg and WT brain were used to compare radiotracer uptake. The final figure was assembled in Adobe Photoshop CS3.
All animal procedures were approved by the Washington University Animal Studies Committee (Protocol # 20150147; Expiration 7/31/18). Thus, biodistribution studies were carried out in "accordance" with the approved guidelines. Pharmacokinetics of 18F-9 in brain and other critical tissues of normal male 12 week old BL6 (WT; 28-36 g) mice were determined as previously described 15. Briefly, 18F-9 (740 kBq) was […]

Q: With `CN(C)c1ncc(/C=C\c2nc3cc(OCC[18F])ccc3[se]2)cn1` [[^18F]-9] as the molecule, how does the “brain uptake clearance ratio superior to [18F]-AV-45” value (healthy mice, 2 min/120 min) read?
A: 1.3 fold

Q: What about the “brain clearance ratio (%ID/g) 2 min/120 min” value (normal mice) of the same molecule?
A: 5.33

Q: And the Blood uptake (normal mice, 2 min)?
A: 4.79 ± 0.33 % ID/g

Q: And the Bone uptake (normal mice, 2 min)?
A: 1.15 ± 0.15 % ID/g

Q: What about the Brain uptake (normal mice, 2 min) of the same molecule?
A: 8.86 ± 0.32 % ID/g

Q: And the Heart uptake (normal mice, 2 min)?
A: 8.56± 0.78 % ID/g

Q: And the Kidney uptake (normal mice, 2 min)?
A: 14.93± 0.85 % ID/g

Q: What about the Liver uptake (normal mice, 2 min) of the same molecule?
A: 35.44 ± 2.52 % ID/g

Q: What about the Lung uptake (normal mice, 2 min) of the same molecule?
A: 10.07± 0.74 % ID/g

Q: And the Blood uptake (normal mice, 60 min)?
A: 2.27 ± 0.06 % ID/g

Q: And the Bone uptake (normal mice, 60 min)?
A: 3.88 ± 1.48 % ID/g

Q: What about the Brain uptake (normal mice, 60 min) of the same molecule?
A: 1.80 ± 0.02 % ID/g

Q: And the Heart uptake (normal mice, 60 min)?
A: 2.15 ± 0.02 % ID/g

Q: What about the Kidney uptake (normal mice, 60 min) of the same molecule?
A: 2.52 ± 0.06 % ID/g

Q: What about the Liver uptake (normal mice, 60 min) of the same molecule?
A: 8.64 ± 0.15 % ID/g

Q: And the Lung uptake (normal mice, 60 min)?
A: 2.23 ± 0.11 % ID/g

Q: And the Blood uptake (normal mice, 120 min)?
A: 2.16 ± 0.03 % ID/g

Q: And the Bone uptake (normal mice, 120 min)?
A: 6.08 ± 0.85 % ID/g

Q: What about the Brain uptake (normal mice, 120 min) of the same molecule?
A: 1.66 ± 0.01 % ID/g

Q: And the Heart uptake (normal mice, 120 min)?
A: 1.92 ± 0.05 % ID/g

Q: What about the Kidney uptake (normal mice, 120 min) of the same molecule?
A: 2.12 ± 0.09 % ID/g

Q: And the Liver uptake (normal mice, 120 min)?
A: 8.13 ± 0.12 % ID/g

Q: What about the Lung uptake (normal mice, 120 min) of the same molecule?
A: 1.98 ± 0.05 % ID/g
